In the supplement of paper PMC11208160:

assay: recombinant UMI read abundance after kanamycin selection (control-corrected) (log10(CPM+1)); higher = more efficient recombination; extreme values may be limits of the assay; sequences stand for … in AGTGCAGAGAAAATCGGCCAGTTTTCTCTGCCTGCAGTCCGCATGCCGTGGGACCCCTTGGGTTCTAACCTGTTGCCTAGATTTATGCAGCGGACTGCCTTTCTCCCAAAGTGATAAACCGG…AGGTTGGTTTCACT; site = the 11-nt donor
How it was run: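 Sequenced counts of recombinant UMIs were turned into CPM, averaged across replicates and scaled with control-derived factors. The reported figure is log10(CPM+1). Those UMIs, each 12 nt long, tagged donor and donor-binding-loop pairs on a plasmid with a promoterless kanamycin gene, screened as a pool in Escherichia coli with IPTG (0.07 mM) plus kanamycin or without selection.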
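Further: IS621 bridge recombinase in Escherichia coli cells against a fixed T5 target plasmid.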

Point of comparison: “TAGGCTTCATGGACCGGTTTTCCCGGTAATCCGTATTTGGT (site TAGACTTCTAC)”, “recombinant UMI read abundance (log10)” value 0.0923. Against it:
- TAGCTAGCATGGACCGGTTTTCCCGGTAATCCGTATTTGAA (site TATCTAGCTTT) — within 0.2 log units, 0.0236
- TAGCTAGCATGGACCGGTTTTCCCGGTAATCCGTATTTGAA (site TCGCTAGCTTT) — within 0.2 log units, 0.00871
- TAGCTAGCATGGACCGGTTTTCCCGGTAATCCGTATTTGAA (site TGGCTAGCTTT) — within 0.2 log units, 0.0087
- TAGCTAGCATGGACCGGTTTTCCCGGTAATCCGTATTTGAA (site TTGCTAGCTTT) — within 0.2 log units, 0.00459
- TAGCTGACATGGACCGGTTTTCCCGGTAATCCGTATTTGCG (site TAGCTGACTCG) — higher, 1.5
- TAGGAATCATGGACCGGTTTTCCCGGTAATCCGTATTTGCA (site TAGGAATCTAG) — higher, 1.62
- TAGGAATCATGGACCGGTTTTCCCGGTAATCCGTATTTGCA (site TAGGAATCTCG) — higher, 1.64
- TAGGAATCATGGACCGGTTTTCCCGGTAATCCGTATTTGCA (site TAGGAATCTGG) — higher, 0.896
- TAGGAATCATGGACCGGTTTTCCCGGTAATCCGTATTTGCA (site TAGGAATCTTG) — higher, 2.82
- TAGGAATCATGGACCGGTTTTCCCGGTAATCCGTATTTGTG (site TAGGAATCTCA) — higher, 3.2
- TAGGAATCATGGACCGGTTTTCCCGGTAATCCGTATTTGTG (site TAGGAATCTCC) — higher, 2.13
- TAGGAATCATGGACCGGTTTTCCCGGTAATCCGTATTTGTG (site TAGGAATCTCG) — higher, 2.63
- TAGGAATCATGGACCGGTTTTCCCGGTAATCCGTATTTGTG (site TAGGAATCTCT) — higher, 2.59
- TAGGAGTCATGGACCGGTTTTCCCGGTAATCCGTATTTGCG (site TAGGAATCTCG) — higher, 3.12
- TAGGAGTCATGGACCGGTTTTCCCGGTAATCCGTATTTGCG (site TAGGACTCTCG) — higher, 1.24
- TAGGAGTCATGGACCGGTTTTCCCGGTAATCCGTATTTGCG (site TAGGAGTCTCG) — higher, 3.24
- TAGGAGTCATGGACCGGTTTTCCCGGTAATCCGTATTTGCG (site TAGGATTCTCG) — higher, 0.951
- TAGGCCGCATGGACCGGTTTTCCCGGTAATCCGTATTTGTG (site CCATTGACTTT) — within 0.2 log units, 0.00523
- TAGGCTTCATGGACCGGTTTTCCCGGTAATCCGTATTTGGT (site TAGCCTTCTAC) — within 0.2 log units, 0.0146
- TAGGCTTCATGGACCGGTTTTCCCGGTAATCCGTATTTGGT (site TAGGCTTCTAC) — higher, 1.54
- TAGGCTTCATGGACCGGTTTTCCCGGTAATCCGTATTTGGT (site TAGTCTTCTAC) — within 0.2 log units, 0.0132
- TAGGGAACATGGACCGGTTTTCCCGGTAATCCGTATTTGGC (site TAGGGAACTGC) — higher, 1.53
- TAGGTTGCATGGACCGGTTTTCCCGGTAATCCGTATTTGTA (site TAGGTTGCTTA) — higher, 2.39
- TAGTAACCATGGACCGGTTTTCCCGGTAATCCGTATTTGAG (site TAGTAACCTCT) — within 0.2 log units, 0.00753
- TAGTGCCCATGGACCGGTTTTCCCGGTAATCCGTATTTGGC (site TAGTGCCCTGC) — within 0.2 log units, 0
- TAGTGTTCATGGACCGGTTTTCCCGGTAATCCGTATTTGCA (site TAGTGTTCTTG) — higher, 2.49
- TAGTTGGCATGGACCGGTTTTCCCGGTAATCCGTATTTGGG (site TAGTTGGCTCC) — within 0.2 log units, 0.0252
- TATAAGCCATGGACCGGTTTTCCCGGTAATCCGTATTTGCC (site TATAAGCCTGG) — within 0.2 log units, 0
- TATAGCGCATGGACCGGTTTTCCCGGTAATCCGTATTTGGC (site TATAGCGCTGC) — higher, 2.48
- TATAGGCCATGGACCGGTTTTCCCGGTAATCCGTATTTGAG (site TATAGGCCTCT) — within 0.2 log units, 0.0191
- TATCATTCATGGACCGGTTTTCCCGGTAATCCGTATTTGGG (site TATCATTCTCC) — within 0.2 log units, 0.00534
- TATCCGTCATGGACCGGTTTTCCCGGTAATCCGTATTTGAA (site TATCCGTCTTT) — within 0.2 log units, 0.0803
- TATGAGTCATGGACCGGTTTTCCCGGTAATCCGTATTTGCT (site TATGAGTCTAG) — higher, 2.74
- TATGCAACATGGACCGGTTTTCCCGGTAATCCGTATTTGTT (site TATGCAACTAA) — within 0.2 log units, 0.0144
- TATGCACCATGGACCGGTTTTCCCGGTAATCCGTATTTGGT (site TATGCACCTAC) — within 0.2 log units, 0.0323
- TATGTGTCATGGACCGGTTTTCCCGGTAATCCGTATTTGAC (site AATGTGTCTGT) — within 0.2 log units, 0
- TATGTGTCATGGACCGGTTTTCCCGGTAATCCGTATTTGAC (site CATGTGTCTGT) — within 0.2 log units, 0
- TATGTGTCATGGACCGGTTTTCCCGGTAATCCGTATTTGAC (site GATGTGTCTGT) — within 0.2 log units, 0
- TATGTGTCATGGACCGGTTTTCCCGGTAATCCGTATTTGAC (site TATGTGTCTGT) — higher, 0.884
- TATTACACATGGACCGGTTTTCCCGGTAATCCGTATTTGCC (site TATTACACTGG) — higher, 2.37
- TATTAGACATGGACCGGTTTTCCCGGTAATCCGTATTTGCG (site TATTAGACTCG) — higher, 1.03
- TATTGGGCATGGACCGGTTTTCCCGGTAATCCGTATTTGTG (site TATTAGGCTCA) — within 0.2 log units, 0.0242
- TATTGGGCATGGACCGGTTTTCCCGGTAATCCGTATTTGTG (site TATTCGGCTCA) — within 0.2 log units, 0.00589
- TATTGGGCATGGACCGGTTTTCCCGGTAATCCGTATTTGTG (site TATTGGGCTCA) — within 0.2 log units, 0.226
- TATTGGGCATGGACCGGTTTTCCCGGTAATCCGTATTTGTG (site TATTTGGCTCA) — within 0.2 log units, 0.0234
- TATTGTGCATGGACCGGTTTTCCCGGTAATCCGTATTTGGT (site TATTGTGCTAC) — higher, 0.401
- TATTTGTCATGGACCGGTTTTCCCGGTAATCCGTATTTGTG (site TATTTGACTCA) — within 0.2 log units, 0.0169
- TATTTGTCATGGACCGGTTTTCCCGGTAATCCGTATTTGTG (site TATTTGCCTCA) — within 0.2 log units, 0.0214
- TATTTGTCATGGACCGGTTTTCCCGGTAATCCGTATTTGTG (site TATTTGGCTCA) — within 0.2 log units, 0.0347
- TATTTGTCATGGACCGGTTTTCCCGGTAATCCGTATTTGTG (site TATTTGTCTCA) — higher, 0.515
- TATTTTGCATGGACCGGTTTTCCCGGTAATCCGTATTTGTG (site TATTTAGCTCA) — within 0.2 log units, 0.00468
- TATTTTGCATGGACCGGTTTTCCCGGTAATCCGTATTTGTG (site TATTTCGCTCA) — within 0.2 log units, 0.0112
- TATTTTGCATGGACCGGTTTTCCCGGTAATCCGTATTTGTG (site TATTTGGCTCA) — within 0.2 log units, 0
- TATTTTGCATGGACCGGTTTTCCCGGTAATCCGTATTTGTG (site TATTTTGCTCA) — within 0.2 log units, 0.00898
- TCAATTTCATGGACCGGTTTTCCCGGTAATCCGTATTTGGC (site TCAATTTCTGC) — within 0.2 log units, 0
- TCACACTCATGGACCGGTTTTCCCGGTAATCCGTATTTGAT (site TCACACTCTAT) — higher, 2.38
- TCACAGCCATGGACCGGTTTTCCCGGTAATCCGTATTTGCA (site TCACAGCCTTG) — higher, 0.816
- TCACCTGCATGGACCGGTTTTCCCGGTAATCCGTATTTGCG (site TCACCTGCTCG) — within 0.2 log units, 0.016
- TCACCTGCATGGACCGGTTTTCCCGGTAATCCGTATTTGTT (site TCACCTGCTAA) — within 0.2 log units, 0.063
- TCACGCACATGGACCGGTTTTCCCGGTAATCCGTATTTGCT (site TCACGCACTAG) — higher, 1.97
- TCACGTACATGGACCGGTTTTCCCGGTAATCCGTATTTGAT (site TCACGTACTAT) — higher, 0.589
- TCACGTCCATGGACCGGTTTTCCCGGTAATCCGTATTTGGC (site TCACGTCCTGC) — within 0.2 log units, 0
- TCAGACTCATGGACCGGTTTTCCCGGTAATCCGTATTTGCA (site TCAAACTCTTG) — higher, 0.771
- TCAGACTCATGGACCGGTTTTCCCGGTAATCCGTATTTGCA (site TCACACTCTTG) — higher, 1.19
- TCAGACTCATGGACCGGTTTTCCCGGTAATCCGTATTTGCA (site TCAGACTCTTG) — higher, 2.95
- TCAGACTCATGGACCGGTTTTCCCGGTAATCCGTATTTGCA (site TCATACTCTTG) — higher, 0.807
- TCAGATACATGGACCGGTTTTCCCGGTAATCCGTATTTGGC (site TCAGATACTGC) — within 0.2 log units, 0
